{"source": "patent US12325681B2", "about": "“Inhibitors of nitric oxide synthases (NOS), pharmaceutical products thereof, and methods thereof” (Gacter Inc., priority 2022, dated 2025)", "key": {"iNOS [1]": {"target": "T1, iNOS (Homo sapiens, UniProt P35228)", "T1 sequence (P35228 whole entry)": "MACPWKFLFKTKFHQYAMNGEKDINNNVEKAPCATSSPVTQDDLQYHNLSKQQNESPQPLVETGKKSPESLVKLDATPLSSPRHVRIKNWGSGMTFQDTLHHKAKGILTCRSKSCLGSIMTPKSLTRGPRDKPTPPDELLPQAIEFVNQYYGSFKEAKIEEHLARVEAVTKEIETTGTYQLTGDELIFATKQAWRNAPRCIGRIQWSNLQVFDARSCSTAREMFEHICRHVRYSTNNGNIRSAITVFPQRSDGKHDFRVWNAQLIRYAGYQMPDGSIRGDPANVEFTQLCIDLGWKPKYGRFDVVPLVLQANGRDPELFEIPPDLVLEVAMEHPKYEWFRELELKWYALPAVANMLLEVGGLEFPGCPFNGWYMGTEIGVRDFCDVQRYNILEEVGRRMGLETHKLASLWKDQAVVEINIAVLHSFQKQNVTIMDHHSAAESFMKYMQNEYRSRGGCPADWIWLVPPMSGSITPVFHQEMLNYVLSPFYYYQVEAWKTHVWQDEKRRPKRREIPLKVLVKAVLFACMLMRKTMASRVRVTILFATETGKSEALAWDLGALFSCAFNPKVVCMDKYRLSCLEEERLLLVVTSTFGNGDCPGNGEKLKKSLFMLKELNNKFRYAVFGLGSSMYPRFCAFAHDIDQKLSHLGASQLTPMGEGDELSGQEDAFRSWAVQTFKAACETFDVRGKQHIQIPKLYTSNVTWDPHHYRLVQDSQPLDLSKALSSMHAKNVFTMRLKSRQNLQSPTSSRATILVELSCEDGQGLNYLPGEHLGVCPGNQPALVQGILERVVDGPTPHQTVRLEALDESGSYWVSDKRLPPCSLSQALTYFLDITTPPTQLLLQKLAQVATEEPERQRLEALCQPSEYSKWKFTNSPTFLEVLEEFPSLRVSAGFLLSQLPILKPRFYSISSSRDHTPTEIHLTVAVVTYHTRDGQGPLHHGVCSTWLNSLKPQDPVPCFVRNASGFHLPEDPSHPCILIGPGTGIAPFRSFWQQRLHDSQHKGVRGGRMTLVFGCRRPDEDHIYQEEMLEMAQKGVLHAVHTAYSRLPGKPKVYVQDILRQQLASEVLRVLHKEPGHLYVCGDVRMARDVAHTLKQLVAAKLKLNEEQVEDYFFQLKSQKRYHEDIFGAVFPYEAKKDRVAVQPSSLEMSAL", "details": "in words; cited from earlier work"}, "rats": {"tested_on": "rats", "details": "cited from earlier work"}, "mice": {"tested_on": "mice", "details": "cited from earlier work"}, "iNOS [2]": {"target": "T1, iNOS", "test": "abcam NOS Inhibitor Screening Kit, IC50 (fluorescence)", "assay_type": "biochemical", "design": "IC50", "method": "The IC50 of some compounds of the invention was determined using the abcam NOS Inhibitor Screening Kit. The procedure includes the following steps: (1) Dissolved a test compound to 10 mM in DMSO; (2) Diluted the test compound to 1 mM in NOS Assay Buffer; (3) Diluted 1 mM of the test compound stocks to 200 μM, 50 μM, 12.5 μM, 3.125 μM, 0.781 μM, and 0.195 μM in NOS Assay Buffer; (4) Diluted 1 mM DPI Control to 50.0 μM, 12.5 μM, 3.125 μM, 0.781 μM, 0.195 μM, and 0.0488 μM in NOS Assay Buffer; (5) Diluted NOS enzyme with 400 μL of NOS Assay Buffer; (6) Combined Diluted NOS Enzyme with 1.6 mL of NOS Assay buffer then transferred 20 μL of enzyme solution to all wells of 96-well Fluorescence plate except background wells. Added 20 μL of NOS Assay buffer to background wells. (7) Transferred 10 uL of each test compound dilution to the enzyme buffer mix according to the plate map (see addendum for plate map and raw data values). (8) Incubated 15 minutes at room temperature. (9) Added 11 μL of NOS reaction mix (according to manufacturer's protocol) to each well, mixed, and incubated at 37° C. for 1 hour. […] Measure Fluorescence at 360 nm excitation/450 nm emission."}, "iNOS [3]": {"target": "T1, iNOS", "test": "abcam NOS Inhibitor Screening Kit, IC50 (fluorescence)", "assay_type": "biochemical", "design": "IC50; IC50", "details": "abcam NOS Inhibitor Screening Kit", "method": "(§1) The IC50 of some compounds of the invention was determined using the abcam NOS Inhibitor Screening Kit. The procedure includes the following steps: (1) Dissolved a test compound to 10 mM in DMSO; (2) Diluted the test compound to 1 mM in NOS Assay Buffer; (3) Diluted 1 mM of the test compound stocks to 200 μM, 50 μM, 12.5 μM, 3.125 μM, 0.781 μM, and 0.195 μM in NOS Assay Buffer; (4) Diluted 1 mM DPI Control to 50.0 μM, 12.5 μM, 3.125 μM, 0.781 μM, 0.195 μM, and 0.0488 μM in NOS Assay Buffer; (5) Diluted NOS enzyme with 400 μL of NOS Assay Buffer; (6) Combined Diluted NOS Enzyme with 1.6 mL of NOS Assay buffer then transferred 20 μL of enzyme solution to all wells of 96-well Fluorescence plate except background wells. Added 20 μL of NOS Assay buffer to background wells. (7) Transferred 10 uL of each test compound dilution to the enzyme buffer mix according to the plate map (see addendum for plate map and raw data values). (8) Incubated 15 minutes at room temperature. (9) Added 11 μL of NOS reaction mix (according to manufacturer's protocol) to each well, mixed, and incubated at 37° C. for 1 hour. (10) Added 110 μL of NOS Assay Buffer to each well followed by 5 μL of Enhancer to each well, mixed, and incubated 10 minutes at room temperature; (11) Added 10 μL of Probe to each well, mixed, and incubated 10 minutes at room temperature; and (12) Added 5 μL of NaOH to each well, mixed, and incubated 10 minutes at room temperature. Measure Fluorescence at 360 nm excitation/450 nm emission."}, "iNOS [4]": {"target": "T1, iNOS", "test": "abcam NOS Inhibitor Screening Kit, IC50 (fluorescence)", "assay_type": "biochemical", "design": "Fold (GT-xxxx)/AZ 6b", "details": "ratio of IC50 to AZ 6b IC50 (0.0488 μM)", "method": "as §1"}}, "note": "Read-outs that look alike come from different tables or passages of the source.", "data": [{"compound": "N=C(N)SCCc1ccc(CCSC(=N)N)cc1", "note": "[PBIT, S,S′-1,4-phenylene-bis(1,2-ethanediyl)bis-isothiourea]", "values": [{"measurement": "selectivity of inhibition iNOS to eNOS", "setting": "iNOS [1]", "value": "does not exhibit necessary selectivity"}, {"measurement": "acutely toxic at doses as low as", "setting": "rats", "value": 10, "unit": "mg/kg"}, {"measurement": "acutely toxic at doses as low as", "setting": "mice", "value": 10, "unit": "mg/kg"}]}, {"compound": "N#Cc1ccc(Cl)cc1O[C@H](CCN)c1ccccc1", "note": "[AZ 6b, (R)-2-(3-amino-1-phenylpropoxy)-4-chlorobenzonitrile, reference compound]", "values": [{"measurement": "IC50", "setting": "iNOS [2]", "value": 48.8, "unit": "nM"}]}, {"compound": "NCC[C@@H](Oc1cc(Cl)cc2[nH]cnc12)c1ccccc1", "note": "[GT-6041, (R)-3-((6-chloro-1H-benzo[d]imidazol-4-yl)oxy)-3-phenylpropan-1-amine]", "values": [{"measurement": "IC50", "setting": "iNOS [3]; Table C-1", "value": 156, "unit": "nM"}, {"measurement": "IC50", "setting": "iNOS [3]; Table C-2", "value": 156, "unit": "nM"}, {"measurement": "Fold (GT-xxxx)/AZ 6b", "setting": "iNOS [4]", "value": 3.20}]}, {"compound": "NCC[C@@H](Oc1cc(Cl)cc2[nH]ncc12)c1ccccc1", "note": "[GT-6045]", "values": [{"measurement": "IC50", "setting": "iNOS [3]; Table C-1", "value": 231, "unit": "nM"}, {"measurement": "IC50", "setting": "iNOS [3]; Table C-2", "value": 231, "unit": "nM"}, {"measurement": "Fold (GT-xxxx)/AZ 6b", "setting": "iNOS [4]", "value": 4.73}]}]}
